Columns and labels:
Assay type in all cases: in vivo
Diaitaria ciliaris (Di) = experiment: Test Example 3: herbicidal effects by upland field foliage treatment; set-up: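 grade of growth control; 5 = at least 90%; 4 = 70 to 90%; 3 = 50 to 70%; 2 = 30 to 50%; 1 = 10 to 30%; 0 = under 10%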; conditions: 100 g of the active ingredient per 10 ares, evaluated on the 14th day after treatment
Description: (§1) (Test on Herbicidal Effects by Upland Field Foliage Treatment)
(§2) In a plastic pot (surface area: 120 cm^2) filled with sand, barnyardgrass (Ec), Diaitaria ciliaris (Di), pale smartweed (Po), slender amaranth (Am), common lambsquarters (Ch) and rice flatsedge (Ci) were sown and covered with soil and were cultured in a green house for 2 weeks. […] The plants were then cultured in the green house, and the evaluation of the herbicidal effects was conducted on the 14th day after the treatment in accordance with the standards as identified in Table 47. Symbol—represents “not tested”.

barnyardgrass (Ec) [1] = experiment: as above; set-up: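 grade of growth control; 5 = at least 90%; 4 = 70 to 90%; 3 = 50 to 70%; 2 = 30 to 50%; 1 = 10 to 30%; 0 = under 10%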; conditions: 100 g of the active ingredient per 10 ares, evaluated on the 14th day after treatment
Description: as §1, §2

[2] = system: common lambsquarters (Ch); experiment: as above; set-up: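 grade of growth control; 5 = at least 90%; 4 = 70 to 90%; 3 = 50 to 70%; 2 = 30 to 50%; 1 = 10 to 30%; 0 = under 10%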; conditions: 100 g of the active ingredient per 10 ares, evaluated on the 14th day after treatment
Description: as §1, §2

pale smartweed (Po) = experiment: as above; set-up: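 grade of growth control; 5 = at least 90%; 4 = 70 to 90%; 3 = 50 to 70%; 2 = 30 to 50%; 1 = 10 to 30%; 0 = under 10%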; conditions: 100 g of the active ingredient per 10 ares, evaluated on the 14th day after treatment
Description: as §1, §2

rice flatsedge (Ci) = experiment: as above; set-up: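 grade of growth control; 5 = at least 90%; 4 = 70 to 90%; 3 = 50 to 70%; 2 = 30 to 50%; 1 = 10 to 30%; 0 = under 10%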; conditions: 100 g of the active ingredient per 10 ares, evaluated on the 14th day after treatment
Description: as §1, §2

slender amaranth (Am) = experiment: as above; set-up: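 grade of growth control; 5 = at least 90%; 4 = 70 to 90%; 3 = 50 to 70%; 2 = 30 to 50%; 1 = 10 to 30%; 0 = under 10%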; conditions: 100 g of the active ingredient per 10 ares, evaluated on the 14th day after treatment
Description: as §1, §2

barnyardgrass (Ec) [3] = experiment: Test Example 1: herbicidal effects by paddy field soil treatment; conditions: 100 g of the active ingredient per 10 ares, 21st day after the application, index 0-5 of Table 47;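 note: grade of growth control; 5 = at least 90%; 4 = 70 to 90%; 3 = 50 to 70%; 2 = 30 to 50%; 1 = 10 to 30%; 0 = under 10%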
Description: (§3) (Test on Herbicidal Effects by Paddy Field Soil Treatment)
(§4) In a plastic pot (surface area: 100 cm^2) filled with paddy field soil, barnyardgrass (Ec), monochoria (Mo) and bulrush (Sc) were sown after puddling and leveling, and flooded to a water depth of 3 cm. […] The dose was 100 g of the active ingredient per 10 ares. The plants were then cultured in a green house, and the evaluation of the herbicidal effects was conducted on the 21st day after the application in accordance with the standards as identified in Table 47.

bulrush (Sc) = experiment: as above; conditions: 100 g of the active ingredient per 10 ares, 21st day after the application, index 0-5 of Table 47;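 note: grade of growth control; 5 = at least 90%; 4 = 70 to 90%; 3 = 50 to 70%; 2 = 30 to 50%; 1 = 10 to 30%; 0 = under 10%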
Description: as §3, §4

monochoria (Mo) = experiment: as above; conditions: 100 g of the active ingredient per 10 ares, 21st day after the application, index 0-5 of Table 47;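 note: grade of growth control; 5 = at least 90%; 4 = 70 to 90%; 3 = 50 to 70%; 2 = 30 to 50%; 1 = 10 to 30%; 0 = under 10%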
Description: as §3, §4

Structure (SMILES)	Herbicidal effects Di (Diaitaria ciliaris (Di))	Herbicidal effects Ec (barnyardgrass (Ec) [1])	Herbicidal effects Ch [2]	Herbicidal effects Po (pale smartweed (Po))	Herbicidal effects Ci (rice flatsedge (Ci))	Herbicidal effects Am (slender amaranth (Am))	Herbicidal effects Ec (barnyardgrass (Ec) [3])	Herbicidal effects Sc (bulrush (Sc))	Herbicidal effects Mo (monochoria (Mo))
CCCC(Sc1cc(-c2ccc(C(F)(F)F)n(C)c2=O)ccc1Cl)C(=O)OCC (racemic) [1-116]	4	4	5	5	5	5			
CCOC(=O)C(C)Sc1cc(-c2ccc(C(F)(F)F)n(C)c2=O)c(Cl)cc1Cl (racemic) [1-124]	5	5	5	5	5	5	5	5	5
Cn1c(C(F)(F)F)ccc(-c2cc(OCc3ccccc3)c(Cl)cc2F)c1=O [1-23]							5	5	5
CCOC(=O)COc1cc(-c2ccc(C(F)(F)F)n(C)c2=O)c(Cl)cc1Cl [1-33]	4	5	5	4	5	5	5	5	5
Cn1c(C(F)(F)F)ccc(-c2cc(Oc3ccccc3)c(Cl)cc2Cl)c1=O [1-36]							5	5	5
Cn1c(C(F)(F)F)ccc(-c2cc(OC3CCCC3)c(Cl)cc2Cl)c1=O [1-40]							5	5	5
CCOC(=O)CSc1cc(-c2ccc(C(F)(F)F)n(C)c2=O)c(F)cc1Cl [1-45]	5	5	5	5	5	5	5	5	5
COC(=O)CSc1cc(-c2ccc(C(F)(F)F)n(C)c2=O)c(F)cc1Cl [1-46]	5	5	5	5	5	5	5	5	5
Cn1c(C(F)(F)F)ccc(-c2cc(SCC(=O)OC3CCCC3)c(Cl)cc2F)c1=O [1-47]							5	5	5
COCCOC(=O)CSc1cc(-c2ccc(C(F)(F)F)n(C)c2=O)c(F)cc1Cl [1-49]	5	5	5	5	5	5	5	5	5
CCOC(=O)CSc1cc(-c2ccc(C(F)(F)F)n(C)c2=O)c(Cl)cc1Cl [1-53]							5	5	5
COC(=O)CSc1cc(-c2ccc(C(F)(F)F)n(C)c2=O)c(Cl)cc1Cl [1-54]	5	5	5	4	5	5	5	5	5
CCOC(=O)CNc1cc(-c2ccc(C(F)(F)F)n(C)c2=O)c(F)cc1Cl [1-63]	5	5	5	5	5	5			
CC(C)=NOC(=O)c1cc(-c2ccc(C(F)(F)F)n(C)c2=O)c(F)cc1Cl [1-68]	5	5	5	5	5	5	5	5	5
COC(=O)C(Cl)Cc1cc(-c2ccc(C(F)(F)F)n(C)c2=O)c(F)cc1Cl (stereo not drawn) [1-70]	5	5	5	5	5	5	5	5	5

— US6472348B1, “Pyridone derivatives and herbicides” (Kumiai Chemical Industry Co., Ltd., priority 1996, dated 2002)
